Patent publication US20200138825A1, “METHOD OF TREATING MALIGNANT RHABDOID TUMOR OF THE OVARY (MRTO)/SMALL CELL CANCER OF THE OVARY OF THE HYPERCALCEMIC TYPE(SCCOHT) WITH AN EZH2 INHIBITOR” (Epizyme, Inc., priority 2015, published 2020)
Where “and” joins values, the source holds several entries; their conditions need not be identical. Equal entries are not always repeated. Entries after “also recorded” stand apart in the source; their conditions may differ. Marks after values point to notes of the source that are not given here.

Tests used:
[1] = test system: JHOC-5, TYKNU, PA-1, OAW42, ES-2, COV362 cell lines; experiment: Long-term proliferation assays, single-deficient or WT ovarian cell lines; format: cell-based
Bin-67 xenograft tumors = experiment: SCCOHT xenograft model (Bin-67); format: in vivo
Experimental: EZH2 target inhibition was assessed by H3K27me3 levels in xenograft tissue collected on day 18 (FIG. 18B). Each point represents the ratio of H3K27me3 to total H3 from the tumor of a single animal.

COV434 xenograft tumors = experiment: SCCOHT xenograft model (COV434); format: in vivo
Experimental: After day 28, a portion of the COV434 xenograft cohort were retained to monitor for tumor regrowth while under no treatment, of which there was none. EZH2 target inhibition was assessed by H3K27me3 levels in xenograft tissue collected on day 28 (FIG. 19B). Each point represents the ratio of H3K27me3 to total H3 from the tumor of a single animal.

TOV112D xenograft tumors = experiment: SCCOHT xenograft model (TOV112D); format: in vivo
Experimental: EZH2 target inhibition was measured by H3K27me3 levels in xenograft tissue collected on day 14 (FIG. 20B). Each point represents the ratio of H3K27me3 to total H3 from the tumor of a single animal.

[2] = human, in vivo
Experimental: (§1) Table 2 describes a Phase 1 clinical trial design (sponsor protocol no.: E7438-G000-001, ClinicalTrials.gov identifier: NCT01897571). The study population included subjects with relapsed or refractory solid tumors or B-cell lymphoma. Subjects received a 3+3 dose-escalation in expansion cohorts receiving 800 mg BID and 1600 mg BID, respectively, or a cohort for ascertaining the effect of food on dosing at 400 mg BID. The primary endpoint was a determination of recommended phase II dose (RP2D)/maximum tolerated dose (MTD). Secondary endpoints included safety, pharmacokinetics (PK), pharmacodynamics (PD) and tumor response, assessed every 8 wks.

[3] = test system: INI1-negative malignant rhabdoid tumor; experiment: Phase 1 clinical activity, INI1-negative malignant rhabdoid tumor; format: in vivo, human; settings: for Best Response / Time on study: INI1-negative malignant rhabdoid tumor
Experimental: as §1

[4] = test system: INI1-negative epithelioid sarcoma; experiment: Phase 1 clinical activity, INI1-negative epithelioid sarcoma; format: in vivo, human
Experimental: as §1

[5] = test system: SMARCA4-negative malignant rhabdoid tumor of ovary (SCCOHT); experiment: Phase 1 clinical activity, SMARCA4-negative malignant rhabdoid tumor of ovary (SCCOHT); format: in vivo, human; settings: for Tumor size: person, 1600 mg BID oral tablet
Experimental: as §1

[6] = test system: SMARCA4-negative thoracic sarcoma; experiment: Phase 1 clinical activity, SMARCA4-negative thoracic sarcoma; format: in vivo, human; settings: 1600 mg BID
Experimental: as §1

[7] = test system: H3K27me3 in INI1- and SMARCA4-negative tumors; experiment: Pharmacodynamic H3K27me3 inhibition in tumor tissue of patients; format: in vivo, human
MRT and MRTO/SCCOHT = experiment: Assessment of clinical activity in MRT and MRTO/SCCOHT; format: in vivo, human; settings: MRT and MRTO/SCCOHT following treatment
[8] = test system: Dual SMARCA2 and SMARCA4 deficient ovarian cell lines; settings: four SMARCA2-deficient and SMARCA4-deficient cell lines
[9] = test system: cell lines and xenografts deficient in INI1 (SNF5/SMARCB1); settings: Knutson et al. PNAS 2013; cited from earlier work
Oral bioavailability = settings: in vivo
[10] = 800 mg BID, + = remains on study

SMILES: CCN(c1cc(-c2ccc(CN3CCOCC3)cc2)cc(C(=O)NCc2c(C)cc(C)[nH]c2=O)c1C)C1CCOCC1 [tazemetostat]
- sensitivity [1]: Lower sensitivity
- tumor volume compared to vehicle (Bin-67 xenograft tumors; after 18 days): statistically significant differences in volume compared to vehicle
- H3K27me3 in xenograft tumors (Bin-67 xenograft tumors; after 18 days of treatment): reduction of H3K27me3
- tumor volume compared to vehicle (COV434 xenograft tumors; after 28 days): statistically significant differences in volume compared to vehicle
- tumor regrowth while under no treatment (COV434 xenograft tumors; after day 28): none
- tumor volume compared to vehicle (TOV112D xenograft tumors; 14 days, twice daily): statistically significant differences in volume compared to vehicle
- H3K27me3 in xenograft tumors (TOV112D xenograft tumors; after 14 days of treatment): reduction of H3K27me3
- Anemia, All Events, All Grades [2]: 7
- Anemia, All Events, Grade n [2]: 1
- Anemia, All Treatment-Related, All Grades [2]: 3
- Anemia, All Treatment-Related, Grade n [2]: 0
- Asthenia, All Events, All Grades [2]: 28
- Asthenia, All Events, Grade n [2]: 1
- Asthenia, All Treatment-Related, All Grades [2]: 12
- Asthenia, All Treatment-Related, Grade n [2]: 0
- Constipation, All Events, All Grades [2]: 7
- Constipation, All Events, Grade n [2]: 0
- Constipation, All Treatment-Related, All Grades [2]: 2
- Constipation, All Treatment-Related, Grade n [2]: 0
- Decreased appetite, All Events, All Grades [2]: 11
- Decreased appetite, All Events, Grade n [2]: 3
- Decreased appetite, All Treatment-Related, All Grades [2]: 3
- Decreased appetite, All Treatment-Related, Grade n [2]: 1
- Dysgeusia, All Events, All Grades [2]: 5
- Dysgeusia, All Events, Grade n [2]: 0
- Dysgeusia, All Treatment-Related, All Grades [2]: 5
- Dysgeusia, All Treatment-Related, Grade n [2]: 0
- Dyspnea, All Events, All Grades [2]: 8
- Dyspnea, All Events, Grade n [2]: 0
- Dyspnea, All Treatment-Related, All Grades [2]: 0
- Dyspnea, All Treatment-Related, Grade n [2]: 0
- Elevated LFTs, All Events, All Grades [2]: 2
- Elevated LFTs, All Events, Grade n [2]: 1
- Elevated LFTs, All Treatment-Related, All Grades [2]: 0
- Elevated LFTs, All Treatment-Related, Grade n [2]: 1
- Hypertension, All Events, All Grades [2]: 3
- Hypertension, All Events, Grade n [2]: 1
- Hypertension, All Treatment-Related, All Grades [2]: 1
- Hypertension, All Treatment-Related, Grade n [2]: 1
- Muscle Spasms, All Events, All Grades [2]: 5
- Muscle Spasms, All Events, Grade n [2]: 0
- Muscle Spasms, All Treatment-Related, All Grades [2]: 2
- Muscle Spasms, All Treatment-Related, Grade n [2]: 0
- Nausea, All Events, All Grades [2]: 8
- Nausea, All Events, Grade n [2]: 0
- Nausea, All Treatment-Related, All Grades [2]: 7
- Nausea, All Treatment-Related, Grade n [2]: 0
- Neutropenia, All Events, All Grades [2]: 2
- Neutropenia, All Events, Grade n [2]: 1
- Neutropenia, All Treatment-Related, All Grades [2]: 1
- Neutropenia, All Treatment-Related, Grade n [2]: 1
- Thrombocytopenia, All Events, All Grades [2]: 10
- Thrombocytopenia, All Events, Grade n [2]: 2
- Thrombocytopenia, All Treatment-Related, All Grades [2]: 6
- Thrombocytopenia, All Treatment-Related, Grade n [2]: 1
- Vomiting, All Events, All Grades [2]: 6
- Vomiting, All Events, Grade n [2]: 0
- Vomiting, All Treatment-Related, All Grades [2]: 3
- Vomiting, All Treatment-Related, Grade n [2]: 0
- Best Response ([3]; 400 mg BID): SD week 8
- Time on study ([3]; 400 mg BID, + = remains on study): 12+ weeks
- Best Response ([3]; 800 mg BID): complete remission (CR); also recorded: CR week 8*; also recorded: PD week 8
- Time on study [3, 10]: 65+ weeks and 35 weeks
- Time on study ([3]; 1600 mg BID): 16 weeks and 17 weeks
- response ([3]; patient with INI1-negative (IHC) relapsed malignant rhabdoid tumor, Phase 1): complete response
- Best Response ([4]; 400 mg BID): PD week 8
- Time on study ([4]; 400 mg BID): 11 weeks
- Best Response ([4]; 800 mg BID): partial remission (PR); also recorded: PR week 8; also recorded: SD week 8
- Time on study [4, 10]: 25+ weeks and 24+ weeks
- clinical activity ([5]; Phase 1, two patients with SCCOHT (SMARCA4-negative)): Clinical activity was observed
- Best Response ([5]; SMARCA4-negative SCCOHT, 1600 mg BID): PR week 8*; also recorded: SD week 8
- Time on study ([5]; SMARCA4-negative SCCOHT, 1600 mg BID, + = remains on study): 25+ weeks and 26+ weeks
- Tumor size ([5]; after 8 weeks): decreased from baseline
- Tumor size ([5]; after 16 weeks): further decreased from the 8 week measurement
- Best Response [6]: PD week 5
- Time on study [6]: 6 weeks
- pharmacodynamics inhibition of HeK27me3 in tumor tissue [7]: induces pharmacodynamics inhibition of HeK27me3
- clinical activity (MRT and MRTO/SCCOHT): stable disease for at least six months, partial remission or complete remission
- inhibition of cell growth [8]: Dose-dependent inhibition of cell growth
- sensitivity of INI1-deficient cell lines and xenografts [9]: profound sensitivity and durable regressions
- oral bioavailability (Oral bioavailability): orally bioavailable
- antitumor activity (G401 xenograft): antitumor activity
